Experimental data: PMC7898795 (Angewandte Chemie (International Ed. in English), 2020)
Converted amounts (≈) assume the structure as drawn.

Test: Water solubility assay
Assay type: physicochemical
Conditions: for solubility thermodynamic at 24 h: thermodynamic from solid
[1] = 50 mM TEAA buffer, pH 7.9, aqueous buffer

| SMILES | solubility thermodynamic at 24 h [1] [µg/mL] | solubility thermodynamic at 24 h (ddH2O, water) [µg/mL] | times more water-soluble than thiostrepton, in 50 mM TEAA (pH 7.9) (ratio of solubility to that of thiostrepton in 50 mM TEAA pH 7.9) [×] | times more water-soluble than thiostrepton, in ddH2O (ratio of solubility to that of thiostrepton in ddH2O) [×] |
| --- | --- | --- | --- | --- |
| C=C1NC(=O)[C@H](C)NC(=O)[C@H]([C@@H](C)CC)N[C@@H]2C=Cc3c([C@H](C)O)cc(nc3[C@H]2O)C(=O)O[C@H](C)[C@@H]2NC(=O)c3csc(n3)[C@H]([C@](C)(O)[C@@H](C)O)NC(=O)[C@H]3CSC(=N3)/C(=C/C)NC(=O)[C@H]([C@@H](C)O)NC(=O)c3csc(n3)[C@]3(CCC(c4nc(C(=O)NC(CB(O)O)C(=O)NC(CB(O)O)C(N)=O)cs4)=N[C@@H]3c3csc2n3)NC(=O)[C@H](C)NC1=O (stereo partly drawn) [compound 3] | 422 ± 8.5 (≈ 240 µM) | 170 ± 2.6 (≈ 96.6 µM) | 84 | 27 |
| C=C(NC(=O)C(=C)NC(=O)c1csc(C2=N[C@@H]3c4csc(n4)[C@H]4NC(=O)c5csc(n5)[C@H]([C@](C)(O)[C@@H](C)O)NC(=O)[C@H]5CSC(=N5)/C(=C/C)NC(=O)[C@H]([C@@H](C)O)NC(=O)c5csc(n5)[C@]3(CC2)NC(=O)[C@H](C)NC(=O)C(=C)NC(=O)[C@H](C)NC(=O)[C@H]([C@@H](C)CC)N[C@@H]2C=Cc3c([C@H](C)O)cc(nc3[C@H]2O)C(=O)O[C@@H]4C)n1)C(N)=O [Thiostrepton, thiostrepton, reference compound] | 5 ± 0.2 (≈ 3 µM) | 6.4 ± 0.1 (≈ 3.84 µM) | – | – |
